Data as given in patent US8133847B2, “Pyrido[2,3-B]pyrazine derivatives useful as herbicidal compounds” (Syngenta Limited, priority 2006, dated 2012).

How the values were obtained:
Assay in all cases: Example B1 herbicidal action, post-emergence, 96-cell seed trays, climatic chamber
Type in all cases: in vivo
[1] = tested on: Nasturtium officinale (NAAOF); set-up: scale not given here; details: Application post-emergence, 1000 mg/l spray equivalent to 1000 g/ha, evaluated after 9 days (100=total damage to plant, 0=no damage to plant)
Description: (§1) Seeds of a variety of test species were sown in sterilised standard soil in seed trays each having 96 cells. After cultivation for 8 to 9 days cultivation (post-emergence) under controlled conditions in a climatic chamber (cultivation at 23/17° C., day/night; 13 hours light; 50-60% humidity), the plants were treated with an aqueous spray solution of 1000 mg/l of the active ingredient dissolved in 10% DMSO (dimethyl sulfoxide, CAS RN 67-68-5) as a solvent, equivalent to 1000 g/ha. The plants were grown in the climatic chamber after application at (24/19° C., day/night; 13 hours light; 50-60% humidity) and watered twice daily. After 9 days until the test was evaluated (100=total damage to plant, 0=no damage to plant)

[2] = tested on: Amaranthus retroflexus (AMARE); details: Application post-emergence, 1000 mg/l spray equivalent to 1000 g/ha, evaluated after 9 days
Description: as §1

[3] = tested on: Solanum nigrum (SOLNI); details: Application post-emergence, 1000 mg/l spray equivalent to 1000 g/ha, evaluated after 9 days (100=total damage to plant, 0=no damage to plant)
Description: as §1

[4] = tested on: Stellaria media (STEME); details: Application post-emergence, 1000 mg/l spray equivalent to 1000 g/ha, evaluated after 9 days (100=total damage to plant, 0=no damage to plant)
Description: as §1

SMILES	damage to plant, Nasturtium officinale (NAAOF) [1]	damage to plant, Amaranthus retroflexus (AMARE) [2]	damage to plant, Solanum nigrum (SOLNI) [3]	damage to plant, Stellaria media (STEME) [4]
CCCC(CCC)C(=O)Oc1c(-c2c(F)ccc(F)c2Cl)c(=O)n(C)c2nccnc12 [Compound C96]	3	5	3	6
CCn1c(=O)c(-c2c(F)ccc(F)c2Cl)c(OC(=O)CC(C)(C)C)c2nccnc21 [Compound C112]	5	6	7	7
CCC(=O)Oc1c(-c2c(Cl)cccc2Cl)c(=O)n(C)c2nccnc12 [Compound C32]	8	8	2	8
Cn1c(=O)c(-c2ccccc2OC(F)(F)F)c(OC(=O)C(C)(C)C)c2nccnc21 [Compound C29]	2	0	4	0
COc1ccccc1-c1c(OC(=O)C(C)C)c2nccnc2n(C)c1=O [Compound C69]	5	0	0	6
Cc1ccccc1-c1c(O)c2nccnc2[nH]c1=O [Compound A6]	0	0	5	0
CC(=O)Oc1c(-c2ccc(Cl)cc2Cl)c(=O)n(C)c2nccnc12 [Compound C43]	5	3	3	5
CC(C)C(=O)Oc1c(-c2c(F)ccc(F)c2Cl)c(=O)n(C)c2ncc[n+]([O-])c12 [Compound C71, isobutyric acid 7-(2-chloro-3,6-difluorophenyl)-5-methyl-6-oxo-1-oxy-5,6-dihydropyrido[2,3-]pyrazin-8-yl ester]	7	0	2	8
Cc1ccc(F)c(-c2c(OC(=O)C(C)(C)C)c3nccnc3n(C)c2=O)c1Cl [Compound C128]	6	3	7	6
O=c1[nH]c2nccnc2c(O)c1-c1cc(Cl)cc(Cl)c1Cl [Compound A28]	3	2	0	2
Cc1ccc(F)c(-c2c(O)c3nccnc3[nH]c2=O)c1Cl [Compound A35]	3	4	4	0
CCn1c(=O)c(-c2c(F)ccc(F)c2Cl)c(OC(C)=O)c2nccnc21 [Compound C13]	8	8	2	8
CC(C)C(=O)Oc1c(-c2cc(Cl)cc(Cl)c2Cl)c(=O)n(C)c2nccnc12 [Compound C68]	5	0	0	5
O=c1[nH]c2nccnc2c(O)c1-c1c(Cl)cccc1Cl [Compound A5]	6	3	3	3
Cc1cc(C(=O)Oc2c(-c3c(F)ccc(F)c3Cl)c(=O)n(C)c3nccnc23)c(C)o1 [Compound C102]	7	4	7	7
CCn1c(=O)c(-c2ccccc2OC)c(OC(=O)C(C)C)c2nccnc21 [Compound C70]	4	0	0	3
CCn1c(=O)c(-c2cccc(C(F)(F)F)c2Cl)c(OC(=O)C(C)C)c2nccnc21 [Compound C78]	8	6	4	6
CCn1c(=O)c(-c2c(F)ccc(C)c2Cl)c(OC(=O)C(C)C)c2nccnc21 [Compound C127]	6	2	7	7
O=c1[nH]c2nccnc2c(O)c1-c1cc(Cl)ccc1C(F)(F)F [Compound A19]	5	6	7	5
CCn1c(=O)c(-c2c(F)ccc(F)c2F)c(OC(=O)C(C)C)c2nccnc21 [Compound C57]	6	5	2	7
C=CCn1c(=O)c(-c2c(Cl)cccc2Cl)c(OC(=O)CC)c2nccnc21 [Compound C30]	8	8	4	8
CC(C)(C)C(=O)Oc1c(-c2c(F)ccc(F)c2Cl)c(=O)n(CC2CC2)c2nccnc12 [Compound C49]	0	3	0	3
CC(C)C(=O)Oc1c(-c2c(F)ccc(F)c2Cl)c(=O)n(CC2CC2)c2nccnc12 [Compound C60]	8	7	7	5
CCOC(=O)Oc1c(-c2c(Cl)cccc2Cl)c(=O)n(C)c2nccnc12 [Compound C36]	7	5	6	5
Cn1c(=O)c(-c2ccccc2Cl)c(OC(=O)C(C)(C)C)c2nccnc21 [Compound C50]	7	4	4	7
CCn1c(=O)c(-c2cc(C(F)(F)F)ccc2Cl)c(OC(=O)C(C)(C)C)c2nccnc21 [Compound C122]	4	6	6	7
CC(C)C(=O)Oc1c(-c2c(Cl)ccc(Cl)c2Cl)c(=O)n(C)c2nccnc12 [Compound C79]	5	6	6	7
